# Source: US12569510B2, “Antiviral prodrugs and pharmaceutical compositions thereof” (THE SCRIPPS RESEARCH INSTITUTE, priority 2019, dated 2026)
# Read-outs that look alike come from different tables or passages of the source.
# Tests used:
# [1] = Stability of aqueous suspension, 2 weeks at 40° C./75% relative humidity (XPRD); type: physicochemical; conditions: aqueous 0.25% CMC-Na/0.5% TWEEN-80 suspension
# Procedure: LC-MS (ESI+): m/z 502.41 [M+H]^+. About 275 mg/g of Compound 6 was suspended in aqueous 0.25% CMC-Na/0.5% TWEEN-80 (26 gauge syringeability) and was subjected to stability for 2 weeks at 40° C./75% relative humidity.
# [2] = Aqueous solubility (pH 7.4); type: physicochemical
# [3] = SC rat PK: EFdA plasma levels; conditions: for Cmax compared with EFdA / duration of plasma levels of EFdA above lower limit of quantitation (LLOQ): single SC dose, 10 mg/kg EFdA equivalent, 4 mg/mL; for half life and mean residence life compared with EFdA: SC, 100 mg/kg EFdA equivalent
# Procedure: (§1) • Animals: Animals (Male SD rats ˜200-250 g and Male rhesus macaques ˜2-3 kg) were obtained from an approved vendor (SLAC Laboratory Animal Co. Ltd., Shanghai, China and/or Topgene Biotechnology, Wuhan city, Hubei Province, China). • Acclimation/Quarantine: Following arrival, animals were assessed as to their general health by a member of the veterinary staff or other authorized personnel. Animals were acclimated for at least 3 days before being placed on study. • Animal Husbandry: Animals were group housed during acclimation and individually housed during the study. The animal room environment will be controlled (target conditions: temperature 18 to 26° C., relative humidity 30 to 70%, 12 hours artificial light and 12 hours dark). Temperature and relative humidity were monitored daily. • Animal Cannulation: No
# (§2) Animals were fasted at least 12 hours prior to the administration. All animals had access to Certified Rodent and non-Rodent Diet (Catalog #M01-F, SLAC Laboratory Animal Cl. Ltd., Shanghai, China) ad libitum 4 hours post dosing.
# Animals were dosed within four hours of suspension preparation. Two 20 μL aliquots of each prepared suspension were transferred into 1.5 mL of polypropylene microcentrifuge tubes and dose validation was run by LC/UV or LC-MS/MS.
# The suspensions were administered via subcutaneous injection (SC) following facility standard operations procedures (SOPs).
# Approximately 200 μL blood was collected from saphenous vein at each time point for rats and 0.5 mL for rhesus macaques. All blood samples were transferred into microcentrifuge tubes containing 4 μL of K2EDTA (0.5M) as anti-coagulant and placed on wet ice until processed for plasma.
# Blood: Blood samples were processed for plasma by centrifugation at approximately 4° C., 3000 g 15 min within half an hour of collection. Plasma samples was stored in polypropylene tubes, quick frozen over dry ice and kept at −70±10° C. until LC/MS/MS analysis.
# If the carryover couldn't meet the criteria, then the percent of carryover should be estimated following in-house bioanalytical SOP. 6. Data Analysis
# Plasma concentration versus time data was analyzed by non-compartmental approaches using the Phoenix WinNonlin 6.3 software program. Cmax, Tmax, T1/2, AUC(0-t), AUC(0-inf), MRT(0-t), MRT(0-inf), % F and graphs of plasma concentration versus time profile were generated.
# Several prodrugs including EFdA (1) as a control were subjected to a single dose rat PK studies via subcutaneous route of administration. All animals were injected with equivalent doses of 10 mg/kg and concentration of 4 mg/mL of EFdA as an aqueous suspension in 0.5% CMC-Na and 0.5% TWEEN-80.
# After optimization, SC rat PK studies were performed again with high equivalent dose of 100 mg/kg at equivalent concentration of 120 mg/mL for Compound 3, 116 mg/mL for Compound 5, and 319 mg/mL of EFdA, respectively.
# [4] = Optimization of surfactant concentration in Compound 5 suspension (syringeability, viscosity, flow, resuspension); type: physicochemical; parameters: key to Flow: + No Flow; ++ Less Flow; +++ Good Flow; ++++ Very Good Flow; key to Viscosity: ++++ Slightly Viscous; +++ Viscous; ++ Very Viscous; + Semisolid; key to Syringeability (26 G): ✓: Syringeable; conditions: 400 mg/gm Compound 5, after 10 days of storage
# Procedure: The concentration of surfactant was optimized with 0.3% and 0.5% of methyl cellulose in a formation containing 400 mg/gm of micronized Compound 5. Formulations were prepared with different concentrations of TWEEN-80 (0.1, 0.2 and 0.3%).
# [5] = SC rhesus PK: EFdA plasma levels; conditions: rhesus macaque, single SC dose, 50 mg/kg EFdA equivalent
# Procedure: as §1, §2
# Animals were dosed within four hours of suspension preparation. […]
# Plasma concentration versus time data was analyzed by non-compartmental approaches using the Phoenix WinNonlin 6.3 software program. […]
# [6] = aqueous medium at pH 7.4, pH 7.4, aqueous buffer, read-out: Aqueous solubility (pH 7.4)
# [7] = 0.3% Methyl Cellulose, 0.1% TWEEN-80
# [8] = 0.3% Methyl Cellulose, 0.2% TWEEN-80
# [9] = 0.3% Methyl Cellulose, 0.3% TWEEN-80
# [10] = 0.5% Methyl Cellulose, 0.1% TWEEN-80
# [11] = 0.5% Methyl Cellulose, 0.2% TWEEN-80
# [12] = 0.5% Methyl Cellulose, 0.3% TWEEN-80
compound,measurement,setting,value
"C#C[C@]1(COC(=O)c2ccccc2)O[C@@H](n2cnc3c(N)nc(F)nc32)C[C@@H]1OC(=O)c1ccccc1 [Compound 6, (2R,3S,5R)-5-(6-amino-2-fluoro-9H-purin-9-yl)-2-((benzoyloxy)methyl)-2-ethynyl tetrahydrofuran-3-yl benzoate]",crystallinity in suspension (XPRD),[1],retains good crystallinity in suspension
same,solubility,[2]; [6],< 2 µg/mL
"C#C[C@]1(COC(=O)C2CCCC2)O[C@@H](n2cnc3c(N)nc(F)nc32)C[C@@H]1OC(=O)C1CCCC1 [Compound 4, (2R,3S,5R)-5-(6-amino-2-fluoro-9H-purin-9-yl)-2-(((cyclopentanecarbonyl)oxy)methyl)-2-ethynyltetrahydrofuran-3-yl cyclopentanecarboxylate]",solubility,[2]; [6],< 1 µg/mL
"C#C[C@]1(CO)O[C@@H](n2cnc3c(N)nc(F)nc32)C[C@@H]1O [Compound 1, 4′-Ethynyl-2-fluoro-2′-deoxyadenosine, reference compound]",solubility,"[2]; aqueous medium at physiological pH, pH 7.4, aqueous buffer, read-out: aqueous solubility at physiological pH",877 µg/mL
"C#C[C@]1(COC(=O)C(C)C)O[C@@H](n2cnc3c(N)nc(F)nc32)C[C@@H]1OC(=O)C(C)C [Compound 2, (2R,3S,5R)-5-(6-amino-2-fluoro-9H-purin-9-yl)-2-ethynyl-2-((isobutyryloxy)methyl)tetrahydrofuran-3-yl isobutyrate]",crystallinity in suspension (XPRD),[1],retains good crystallinity in suspension
same,Cmax compared with EFdA,[3],much lower than for EFdA
same,duration of plasma levels of EFdA above lower limit of quantitation (LLOQ),[3],more than a week
"C#C[C@]1(COC(=O)Cc2ccccc2)O[C@@H](n2cnc3c(N)nc(F)nc32)C[C@@H]1OC(=O)Cc1ccccc1 [Compound 5, (2R,3S,5R)-5-(6-amino-2-fluoro-9H-purin-9-yl)-2-ethynyl-2-((2-phenylacetoxy)methyl)tetrahydrofuran-3-yl 2-phenylacetate]",Flow,[4]; [7],++++
same,Syringeability (26 G),[4]; [7],✓
same,Time Taken to Resuspend,[4]; [7],2.2 min
same,Viscosity,[4]; [7],++++
same,Flow,[4]; [8],++++
same,Syringeability (26 G),[4]; [8],✓
same,Time Taken to Resuspend,[4]; [8],2.5 min
same,Viscosity,[4]; [8],++++
same,Flow,[4]; [9],++++
same,Syringeability (26 G),[4]; [9],✓
same,Time Taken to Resuspend,[4]; [9],2.3 min
same,Viscosity,[4]; [9],++++
same,Flow,[4]; [10],++++
same,Syringeability (26 G),[4]; [10],✓
same,Time Taken to Resuspend,[4]; [10],2.5 min
same,Viscosity,[4]; [10],++++
same,Flow,[4]; [11],++++
same,Syringeability (26 G),[4]; [11],✓
same,Time Taken to Resuspend,[4]; [11],2.5 min
same,Viscosity,[4]; [11],++++
same,Flow,[4]; [12],++++
same,Syringeability (26 G),[4]; [12],✓
same,Time Taken to Resuspend,[4]; [12],3.0 min
same,Viscosity,[4]; [12],++++
same,duration of plasma levels of EFdA above LLOQ,[5],more than a month
same,half life and mean residence life compared with EFdA,[3],Enhanced half life and mean residence life
same,Cmax compared with EFdA,[3],much lower than for EFdA
same,duration of plasma levels of EFdA above lower limit of quantitation (LLOQ),[3],more than a week
"C#C[C@]1(COC(=O)C(CC)CC)O[C@@H](n2cnc3c(N)nc(F)nc32)C[C@@H]1OC(=O)C(CC)CC [Compound 3, (2R,3S,5R)-5-(6-amino-2-fluoro-9H-purin-9-yl)-2-(((2-ethylbutanoyl)oxy)methyl)-2-ethynyltetrahydrofuran-3-yl 2-ethylbutanoate]",half life and mean residence life compared with EFdA,[3],Enhanced half life and mean residence life
same,Cmax compared with EFdA,[3],much lower than for EFdA
same,duration of plasma levels of EFdA above lower limit of quantitation (LLOQ),[3],more than a week
